One test has as its target GLP-1R (Homo sapiens, UniProt P43220). The test can be described thus: HitHunter cAMP assay (GLP-1R). The note with it: cAMP; for Emax: read-out: (Emax) GLP-1R. Type of test: cell-based. The procedure, abridged: (§1)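 Agonist stimulation lasts 30 min at room temperature on 10,000 cells per well, with phosphodiesterase blocked by 625 μM IBMX. Accumulated cAMP is quantified by competitive antibody luminescence after overnight development.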

A further test concerns the target T1, GIP-R (Homo sapiens, UniProt P48546).
T1 sequence (P48546 22-466): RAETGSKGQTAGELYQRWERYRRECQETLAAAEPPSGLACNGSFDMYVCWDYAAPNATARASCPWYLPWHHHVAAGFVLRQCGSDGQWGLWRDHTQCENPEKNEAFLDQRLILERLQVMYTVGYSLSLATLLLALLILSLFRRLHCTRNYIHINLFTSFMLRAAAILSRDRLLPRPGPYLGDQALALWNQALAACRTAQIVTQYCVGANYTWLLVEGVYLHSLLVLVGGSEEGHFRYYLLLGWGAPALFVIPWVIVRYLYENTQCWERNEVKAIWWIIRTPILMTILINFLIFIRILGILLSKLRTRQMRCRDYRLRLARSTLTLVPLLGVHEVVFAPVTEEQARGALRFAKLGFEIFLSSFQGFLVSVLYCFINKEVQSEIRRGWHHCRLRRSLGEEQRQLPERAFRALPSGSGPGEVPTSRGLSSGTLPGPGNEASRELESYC
The test is described as follows: HitHunter cAMP assay (GIP-R). Type of test: cell-based. The note with it: cAMP; for Emax: read-out: (Emax) GIP-R; for Emax at 1 µM: read-out: (Emax) GIP-R at 1 μM, Table 3. In a few lines: as §1

Setting [1] is: Table 3A, read-out: EC50 GLP-1R/nM.
The mark [2] stands for this setting: Table 3A, read-out: EC50 GIP-R/nM.

Molecules are shown by their SMILES. Read-outs that look alike come from different tables or passages of the source. Numbered stars: 1 amine (or outer) side, 2 acyl side, 3 side chain; on linkers, the order of the positions; unused ones are H or OH. Square brackets hold non-standard residues; d marks the D form. Side chains are listed from the residue outwards. Peptide text beside a SMILES is read from it. * marks the point of attachment. γGlu = O=C(O)[C@H](CCC(=O)[*:2])N[*:1]; X2 = O=C(CSCC(=O)*)NCCN1C(=O)CSC1=O; Palmitoyl = CCCCCCCCCCCCCCCC(=O)*; Aib = CC(C)(N)C(=O)O

One may read the Emax as the greatest response seen or fitted, relative to the assay's reference.

Chain of GLP-1R (P43220 24-463): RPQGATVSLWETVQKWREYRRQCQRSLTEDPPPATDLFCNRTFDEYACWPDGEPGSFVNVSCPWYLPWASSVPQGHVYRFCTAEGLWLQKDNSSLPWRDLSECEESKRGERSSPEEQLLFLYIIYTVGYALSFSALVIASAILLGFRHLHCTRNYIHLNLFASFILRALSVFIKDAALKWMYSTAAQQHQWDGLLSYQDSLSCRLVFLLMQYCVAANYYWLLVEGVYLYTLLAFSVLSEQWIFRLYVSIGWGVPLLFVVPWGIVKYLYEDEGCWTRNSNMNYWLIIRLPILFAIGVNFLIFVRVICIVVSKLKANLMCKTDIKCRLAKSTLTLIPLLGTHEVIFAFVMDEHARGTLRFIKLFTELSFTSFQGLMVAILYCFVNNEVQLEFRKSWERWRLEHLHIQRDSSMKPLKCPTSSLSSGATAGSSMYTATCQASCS

Turning to `CCCCCCCCCCCCCCCC(=O)N[C@@H](CCC(=O)NCCCC[C@H](NC(=O)[C@H](CC(=O)O)NC(=O)[C@H](CO)NC(=O)[C@@H](NC(=O)[C@H](Cc1ccccc1)NC(=O)[C@@H](NC(=O)CNC(=O)[C@H](CCC(=O)O)NC(=O)CSCC(=O)NCCN1C(=O)CSC1=O)[C@@H](C)O)[C@@H](C)O)C(=O)N[C@@H](CO)C(=O)N[C@H](C(=O)N[C@@H](Cc1ccc(O)cc1)C(=O)N[C@@H](CC(C)C)C(=O)N[C@@H](CC(=O)O)C(=O)N[C@@H](CCCCN)C(=O)N[C@@H](CCC(N)=O)C(=O)N[C@@H](C)C(=O)N[C@@H](C)C(=O)NC(C)(C)C(=O)N[C@@H](CCC(=O)O)C(=O)N[C@@H](Cc1ccccc1)C(=O)N[C@H](C(=O)N[C@@H](CC(N)=O)C(=O)N[C@@H](Cc1c[nH]c2ccccc12)C(=O)N[C@@H](CC(C)C)C(=O)N[C@@H](CC(C)C)C(=O)N[C@@H](C)C(=O)NCC(=O)NCC(=O)N1CCC[C@H]1C(=O)N[C@@H](CO)C(=O)N[C@@H](CO)C(=O)NCC(=O)N[C@@H](C)C(=O)N1CCC[C@H]1C(=O)N1CCC[C@H]1C(=O)N1CCC[C@H]1C(=O)N[C@@H](CO)C(=O)N[C@@H](CCCCN)C(N)=O)C(C)C)[C@@H](C)CC)C(=O)O` [Compound 201] (X2-EGTFTSDK([γGlu-Palmitoyl])SIYLDKQAA[Aib]EFVNWLLAGGPSSGAPPPSK-NH2), the Emax on GLP-1R (Table 3A) came to 99%; at GIP-R (Table 3A), 105%. Also, the EC50 on GLP-1R (setting [1]) and at GIP-R (setting [2]) was 1 to 10 nM throughout.
With `CC[C@H](C)[C@H](NC(=O)[C@H](CO)NC(=O)[C@H](Cc1ccc(O)cc1)NC(=O)[C@H](CC(=O)O)NC(=O)[C@H](CO)NC(=O)[C@@H](NC(=O)[C@H](Cc1ccccc1)NC(=O)[C@@H](NC(=O)CNC(=O)[C@H](CCC(=O)O)NC(=O)CC(C)(C)CC(=O)NCCN1C(=O)CSC1=O)[C@@H](C)O)[C@@H](C)O)C(=O)N[C@@H](Cc1ccc(O)cc1)C(=O)N[C@@H](CC(C)C)C(=O)N[C@@H](CC(=O)O)C(=O)N[C@@H](CCCCN)C(=O)N[C@@H](CCC(N)=O)C(=O)N[C@@H](C)C(=O)N[C@@H](C)C(=O)NC(C)(C)C(=O)N[C@@H](CCC(=O)O)C(=O)N[C@@H](Cc1ccccc1)C(=O)N[C@H](C(=O)N[C@@H](CC(N)=O)C(=O)N[C@@H](Cc1c[nH]c2ccccc12)C(=O)N[C@@H](CC(C)C)C(=O)N[C@@H](CC(C)C)C(=O)N[C@@H](C)C(=O)NCC(=O)NCC(=O)N1CCC[C@H]1C(=O)N[C@@H](CO)C(=O)N[C@@H](CO)C(=O)NCC(=O)N[C@@H](C)C(=O)N1CCC[C@H]1C(=O)N1CCC[C@H]1C(=O)N1CCC[C@H]1C(=O)N[C@@H](CO)C(=O)N[C@@H](CCCCN)C(N)=O)C(C)C` [Compound 122], the Emax at GLP-1R (Table 3) and on GLP-1R (Table 3A) was 91% throughout. Also, the EC50 on GLP-1R (Table 3, read-out: EC50 GLP-1R/nM) is 1 to 10 nM; on GLP-1R (setting [1]), 1 to 10 nM; on GIP-R (Table 3, read-out: EC50 GIP-R/nM), greater than 1000 nM; at GIP-R (setting [2]), greater than 1000 nM. The maximal effect (Emax) at 1 µM on GIP-R was less than 1%.
On to `CCCCCCCCCCCCCCCC(=O)N[C@@H](CCC(=O)NCCCC[C@H](NC(=O)[C@H](CO)NC(=O)[C@@H]1CCCN1C(=O)[C@@H]1CCCN1C(=O)[C@@H]1CCCN1C(=O)[C@H](C)NC(=O)CNC(=O)[C@H](CO)NC(=O)[C@H](CO)NC(=O)[C@@H]1CCCN1C(=O)CNC(=O)CNC(=O)[C@H](C)NC(=O)[C@H](CC(C)C)NC(=O)[C@H](CC(C)C)NC(=O)[C@H](Cc1c[nH]c2ccccc12)NC(=O)[C@H](CC(N)=O)NC(=O)[C@@H](NC(=O)[C@H](Cc1ccccc1)NC(=O)[C@H](CCC(=O)O)NC(=O)C(C)(C)NC(=O)[C@H](C)NC(=O)[C@H](C)NC(=O)[C@H](CCC(N)=O)NC(=O)[C@H](CCCCN)NC(=O)[C@H](CC(=O)O)NC(=O)[C@H](CC(C)C)NC(=O)[C@H](Cc1ccc(O)cc1)NC(=O)[C@@H](NC(=O)[C@H](CO)NC(=O)[C@H](Cc1ccc(O)cc1)NC(=O)[C@H](CC(=O)O)NC(=O)[C@H](CO)NC(=O)[C@@H](NC(=O)[C@H](Cc1ccccc1)NC(=O)[C@@H](NC(=O)CNC(=O)[C@H](CCC(=O)O)NC(=O)CSCC(=O)NCCN1C(=O)CC[C@@H]1C)[C@@H](C)O)[C@@H](C)O)[C@@H](C)CC)C(C)C)C(N)=O)C(=O)O` (single isomer, unassigned) [Compound 75], for which the Emax on GLP-1R (Table 3) turned out to be 99%; at GLP-1R (Table 3A), 99%; on GIP-R (Table 3), 39%; at GIP-R (Table 3A), 39%.
Consider `CCCCCCCCCCCCCCCC(=O)N[C@@H](CCC(=O)NCCCC[C@H](NC(=O)[C@H](CO)NC(=O)[C@@H]1CCCN1C(=O)[C@@H]1CCCN1C(=O)[C@@H]1CCCN1C(=O)[C@H](C)NC(=O)CNC(=O)[C@H](CO)NC(=O)[C@H](CO)NC(=O)[C@@H]1CCCN1C(=O)CNC(=O)CNC(=O)[C@H](C)NC(=O)[C@H](CC(C)C)NC(=O)[C@H](CC(C)C)NC(=O)[C@H](Cc1c[nH]c2ccccc12)NC(=O)[C@H](CC(N)=O)NC(=O)[C@@H](NC(=O)[C@H](Cc1ccccc1)NC(=O)[C@H](CCC(=O)O)NC(=O)C(C)(C)NC(=O)[C@H](C)NC(=O)[C@H](C)NC(=O)[C@H](CCC(N)=O)NC(=O)[C@H](CCCCN)NC(=O)[C@H](CC(=O)O)NC(=O)[C@H](CC(C)C)NC(=O)[C@H](Cc1ccc(O)cc1)NC(=O)[C@@H](NC(=O)[C@H](CO)NC(=O)[C@H](Cc1ccc(O)cc1)NC(=O)[C@H](CC(=O)O)NC(=O)[C@H](CO)NC(=O)[C@@H](NC(=O)[C@H](Cc1ccccc1)NC(=O)[C@@H](NC(=O)CNC(=O)[C@H](CCC(=O)O)NC(=O)CSCC(=O)NCCN1C(=O)[C@@H](C)[C@H](C)C1=O)[C@@H](C)O)[C@@H](C)O)[C@@H](C)CC)C(C)C)C(N)=O)C(=O)O` (single isomer, unassigned) [Compound 63], for which the Emax worked out at 91% on GLP-1R (Table 3), 91% on GLP-1R (Table 3A), 24% on GIP-R (Table 3) and 24% on GIP-R (Table 3A).
On to `CC[C@H](C)[C@H](NC(=O)[C@H](CO)NC(=O)[C@H](Cc1ccc(O)cc1)NC(=O)[C@H](CC(=O)O)NC(=O)[C@H](CO)NC(=O)[C@@H](NC(=O)[C@H](Cc1ccccc1)NC(=O)[C@@H](NC(=O)CNC(=O)[C@H](CCC(=O)O)NC(=O)CSCC(=O)NCCN1C(=O)CC(c2ccccc2)C1=O)[C@@H](C)O)[C@@H](C)O)C(=O)N[C@@H](Cc1ccc(O)cc1)C(=O)N[C@@H](CC(C)C)C(=O)N[C@@H](CC(=O)O)C(=O)N[C@@H](CCCCN)C(=O)N[C@@H](CCC(N)=O)C(=O)N[C@@H](C)C(=O)N[C@@H](C)C(=O)NC(C)(C)C(=O)N[C@@H](CCC(=O)O)C(=O)N[C@@H](Cc1ccccc1)C(=O)N[C@H](C(=O)N[C@@H](CC(N)=O)C(=O)N[C@@H](Cc1c[nH]c2ccccc12)C(=O)N[C@@H](CC(C)C)C(=O)N[C@@H](CC(C)C)C(=O)N[C@@H](C)C(=O)NCC(=O)NCC(=O)N1CCC[C@H]1C(=O)N[C@@H](CO)C(=O)N[C@@H](CO)C(=O)NCC(=O)N[C@@H](C)C(=O)N1CCC[C@H]1C(=O)N1CCC[C@H]1C(=O)N1CCC[C@H]1C(=O)N[C@@H](CO)C(=O)N[C@@H](CCCCN)C(N)=O)C(C)C` (mixture of isomers) [Compound 105], for which the EC50 at GLP-1R (EC50 GLP-1R/nM, Table 3) is 10 to 100 nM; on GLP-1R (EC50 GLP-1R/nM, Table 3A), 10 to 100 nM; on GIP-R (EC50 GIP-R/nM, Table 3), 10 to 100 nM. For the same molecule, the Emax on GLP-1R (Table 3) and at GLP-1R (Table 3A) was 90% each time. Moreover, at GIP-R, the Emax at 1 µM is less than 10%.
With `CC[C@H](C)[C@H](NC(=O)[C@H](CO)NC(=O)[C@H](Cc1ccc(O)cc1)NC(=O)[C@H](CC(=O)O)NC(=O)[C@H](CO)NC(=O)[C@@H](NC(=O)[C@H](Cc1ccccc1)NC(=O)[C@@H](NC(=O)CNC(=O)[C@H](CCC(=O)O)NC(=O)CSCC(=O)NCCN1C(=O)CCc2cccnc21)[C@@H](C)O)[C@@H](C)O)C(=O)N[C@@H](Cc1ccc(O)cc1)C(=O)N[C@@H](CC(C)C)C(=O)N[C@@H](CC(=O)O)C(=O)N[C@@H](CCCCN)C(=O)N[C@@H](CCC(N)=O)C(=O)N[C@@H](C)C(=O)N[C@@H](C)C(=O)NC(C)(C)C(=O)N[C@@H](CCC(=O)O)C(=O)N[C@@H](Cc1ccccc1)C(=O)N[C@H](C(=O)N[C@@H](CC(N)=O)C(=O)N[C@@H](Cc1c[nH]c2ccccc12)C(=O)N[C@@H](CC(C)C)C(=O)N[C@@H](CC(C)C)C(=O)N[C@@H](C)C(=O)NCC(=O)NCC(=O)N1CCC[C@H]1C(=O)N[C@@H](CO)C(=O)N[C@@H](CO)C(=O)NCC(=O)N[C@@H](C)C(=O)N1CCC[C@H]1C(=O)N1CCC[C@H]1C(=O)N1CCC[C@H]1C(=O)N[C@@H](CO)C(=O)N[C@@H](CCCCN)C(N)=O)C(C)C` [Compound 106], the EC50 at GLP-1R (EC50 GLP-1R/nM, Table 3) lay within 10 to 100 nM; at GLP-1R (EC50 GLP-1R/nM, Table 3A), 10 to 100 nM; on GIP-R (EC50 GIP-R/nM, Table 3) it was 10 to 100 nM; on GIP-R (EC50 GIP-R/nM, Table 3A) it was 10 to 100 nM. In addition, the Emax on GLP-1R (Table 3) came to 95%; on GLP-1R (Table 3A) it was 95%; on GIP-R (Table 3), 37%; on GIP-R (Table 3A), 37%.

Values taken from patent publication US20260176320A1, “MODULATORS OF G-PROTEIN COUPLED RECEPTORS” (priority 2018, published 2026).
